Results taken from BindingDB's records for doi:10.1021/np800491u (Korean Research Institute of Biosciences and Biotechnology, 2009).

Assay: Inhibition of hypoxia-induced HIF1alpha protein accumulation in human Hep3B cells treated for 30 mins measured after 12 hrs by Western blot analysis

SMILES | IC50
COc1c(O)cc2oc(-c3cc(O)cc(O)c3)cc2c1CC(=O)C(C)C [Moracin Q] | 5880 nM
CC1=C[C@H]2c3c(O)cc(-c4cc5ccc(O)cc5o4)cc3O[C@@]3(c4ccc(O)cc4O)Oc4cc(O)ccc4[C@H](C1)[C@@H]23 [CHEBI:2544] | 2600 nM
CC1(C)Oc2cc3oc(-c4cc(O)cc(O)c4)cc3cc2C[C@H]1O [(-)-Moracin P] | 0.65 nM
CC(C)=CC[C@@]12Oc3cc(O)c([C@H]4C=C(C)C[C@H](c5ccc(O)cc5O)[C@H]4C(=O)c4ccc(O)cc4O)c(O)c3C(=O)[C@]1(O)Oc1cc(O)ccc12 [Sanggenon O] | 1030 nM
C[C@@]12C=C(c3c(O)cc(-c4cc5ccc(O)cc5o4)cc3O)C[C@@H](C1)c1ccc(O)cc1O2 [Mulberrofuran H] | 140 nM

Other lines, results leading:

IC50 | SMILES
> 50000 nM | Oc1cc(O)cc(-c2cc3ccc(O)cc3o2)c1 [moracin M]
1260 nM | CC(C)=CC[C@]12Oc3cc(O)c([C@H]4C=C(C)C[C@H](c5ccc(O)cc5O)[C@H]4C(=O)c4ccc(O)cc4O)c(O)c3C(=O)[C@@]1(O)Oc1cc(O)ccc12 [sanggenon C]
0.14 nM | CC(C)(O)C1Cc2cc3cc(-c4cc(O)cc(O)c4)oc3cc2O1 (stereo unspecified) [moracin O]
3620 nM | CC(C)=CCC/C(C)=C\CC/C(C)=C\Cc1c(O)cc(O)cc1-c1cc2ccc(O)cc2o1 [mulberrofuran W]
3510 nM | CC(C)=CCC/C(C)=C/Cc1c(O)cc(O)cc1-c1cc2ccc(O)cc2o1 [albafuran A]
4050 nM | CC(C)=CCC/C(C)=C/Cc1c(O)ccc2cc(-c3cc(O)cc(O)c3CC=C(C)C)oc12 [mulberrofuran D]
